In EP2296651B1, “5-HYDROXYMETHYL-OXAZOLIDIN-2-ONE DERIVATIVES FOR TREATING BACTERIAL INTESTINAL DISEASES” (Actelion Pharmaceuticals Ltd., priority 2008, dated 2009):
Converted amounts (≈) assume the structure as drawn.

How the values were obtained:
C. difficile NC 13366 = assay: Broth microdilution MIC, anaerobic; assay type: cell-based, Clostridium difficile; details: Clostridioides difficile, NC13366, 48h at 37°C, quinolone-resistant hypervirulent strain, read-out: MIC regarding C. difficile NC 13366
[1] = test system: Clostridium difficile A- 1179 NC 13366; assay: Agar dilution MIC, anaerobic strains; assay type: cell-based; details: Clostridioides difficile, A1179NC13366, 48 h
[2] = test system: Fusobacterium necrophorum A-1260 DSM 20698; assay: Agar dilution MIC, anaerobic strains; assay type: cell-based; details: DSM20698, 48 h
[3] = test system: Bacteroides ovatus A-991 ATCC 8483; assay: Agar dilution MIC, anaerobic strains; assay type: cell-based; details: ATCC8483, 48 h
[4] = test system: Bacteroides fragilis A-217 B 6306; assay: Agar dilution MIC, anaerobic strains; assay type: cell-based; details: A217B6306, 48 h
[5] = test system: Bacteroides fragilis A-501 B 8039; assay: Agar dilution MIC, anaerobic strains; assay type: cell-based; details: A501B8039, 48 h
[6] = test system: Bacteroides fragilis A-260 T 9865; assay: Agar dilution MIC, anaerobic strains; assay type: cell-based; details: A260T9865, 48 h
[7] = test system: Eubacterium limosum A-1259 DSM 20698; assay: Agar dilution MIC, anaerobic strains; assay type: cell-based
[8] = test system: Finegoldia magna A-1254 DSM 20470; assay: Agar dilution MIC, anaerobic strains; assay type: cell-based
[9] = test system: Bifidobacterium adolescentis A-1257 DSM 20083; assay: Agar dilution MIC, anaerobic strains; assay type: cell-based; details: DSM20083, 48 h
[10] = test system: Bifidobacterium bifidum A-1258 DSM 20456; assay: Agar dilution MIC, anaerobic strains; assay type: cell-based; details: DSM20456, 48 h
[11] = test system: Lactobacillus acidophilus A-1255 DSM 20079; assay: Agar dilution MIC, anaerobic strains; assay type: cell-based
[12] = test system: C. difficile A-1050 (ATCC 43596); assay: Spore formation at sub-MIC concentrations; assay type: cell-based; details: 0.5x the MIC; 4 days anaerobic incubation at 37°C
[13] = test system: toxigenic C difficile strain 10465; assay: C. difficile hamster model; assay type: in vivo, Golden Syrian hamsters
Description: Golden Syrian hamsters were given a single injection of clindamycin phosphate (10 mg/kg s.c.), and a day later animals were infected by gavage with 10^5 CFU of toxigenic C difficile strain 10465. A fulminant colitis results in the majority (∼95%) of animals and develops 1 to 2 days after the administration of C. difficile. Untreated, the colitis progresses rapidly and turns into severe colitis, hemorrhagic necrosis of the cecum and death. The compound of Example 1 was administered orally as a suspension at three dosage levels (10 mg/kg, 30 mg/kg and 100 mg/kg; n = 10 per group). Vancomycin (50 mg/kg) was used as a control. Animals were treated once daily for 5 days and afterwards maintain under observation for an additional 21 days.
The animals were observed three times daily for morbidity and presence or absence of diarrhoea. The final endpoint of the study was survival. Animals judged to be in a moribund state [extended period of weight loss progressing to an emaciated state, anorexia for 24-48 h, prolonged lethargy (more than 3 days), signs of paralysis, skin erosions or trauma, hunched posture, distended abdomen] were euthanized by a single injection of sodium pentobarbital.

E. faecalis ATCC 29212 = assay: Broth microdilution MIC, aerobic Gram-positive bacteria; details: Enterococcus faecalis, ATCC29212, 48 h
E. faecalis H 4060 = assay: as above; details: Enterococcus faecalis, H4060, 48 h
E. faecalis H 6279 = assay: as above; details: Enterococcus faecalis, H6279, 48 h
E. faecalis H 6897 = assay: as above; details: Enterococcus faecalis, H6897, 48 h
E. faecalis H 7094 = assay: as above; details: Enterococcus faecalis, H7094, 48 h
E. faecalis H 7460 = assay: as above; details: Enterococcus faecalis, H7460, 48 h
E. faecium ATCC 19434 = assay: as above; details: Enterococcus faecium, ATCC19434, 48 h
E. faecium H 9070 = assay: as above; details: Enterococcus faecium, H9070, 48 h
E. faecium H 7969 = assay: as above; details: Enterococcus faecium, H7969, 48 h
E. faecium H 7966 = assay: as above; details: Enterococcus faecium, H7966, 48 h
E. faecium H 7965 = assay: as above; details: Enterococcus faecium, H7965, 48 h
E. faecium A 949 = assay: as above; details: Enterococcus faecium, A949, 48 h
E. faecium L1 (LZD-R) = assay: as above; details: Enterococcus faecium, 48 h
[14] = 100 mg/kg orally once daily for 5 days

O=C(O)c1cn(C2CC2)c2cc(N3CCC(O)(COc4ccc(N5C[C@H](CO)OC5=O)cc4F)CC3)c(F)cc2c1=O [Example 1, 1-cyclopropyl-6-fluoro-7-{4-[2-fluoro-4-((R)-5-hydroxymethyl-2-oxo-oxazolidin-3-yl)-phenoxymethyl]-4-hydroxy-piperidin-1-yl}-4-oxo-1,4-dihydro-quinoline-3-carboxylic acid]
MIC (C. difficile NC 13366): 0.06 µg/mL (≈ 0.102 µM) | MIC [1]: ≤ 0.06 µg/mL | MIC [2]: 1 µg/mL (≈ 1.71 µM) | MIC [3]: 16 µg/mL (≈ 27.3 µM) | MIC [4]: 4 µg/mL (≈ 6.83 µM) | MIC [5]: 4 µg/mL (≈ 6.83 µM) | MIC [6]: 4 µg/mL (≈ 6.83 µM) | MIC ([7]; DSM20698, 48 h, Eubacterium limosum A-1259, DSM 20698): 1 µg/mL (≈ 1.71 µM) | less activity against Eubacterium limosum A-1259 compared to the compound of Example 5 of WO 2005/058888 ([7]; versus R1): 4 times | MIC ([8]; DSM20470, 48 h, Finegoldia magna A-1254, DSM 20470): 0.25 µg/mL (≈ 0.427 µM) | less activity against Finegoldia magna A-1254 compared to the compound of Example 5 of WO 2005/058888 ([8]; versus R1): 4 times | MIC [9]: 0.5 µg/mL (≈ 0.854 µM) | MIC [10]: 0.5 µg/mL (≈ 0.854 µM) | MIC ([11]; DSM20079, 48 h, Lactobacillus acidophilus A-1255, DSM 20079): 0.5 µg/mL (≈ 0.854 µM) | less activity against Lactobacillus acidophilus A-1255 compared to the compound of Example 5 of WO 2005/058888 ([11]; versus R1): 8 times | spores of total cell count [12]: < 1% | survival during the 5 day treatment period ([13]; 10 mg/kg orally once daily for 5 days): all | survival during the 5 day treatment period ([13]; 30 mg/kg orally once daily for 5 days): all | animals survived without relapse, relapse phase of 21 days after treatment [13, 14]: 100% | survival during the 5 day treatment period [13, 14]: all | MIC (E. faecalis ATCC 29212): 0.25 µg/mL (≈ 0.427 µM) | MIC (E. faecalis H 4060): 0.25 µg/mL (≈ 0.427 µM) | MIC (E. faecalis H 6279): 0.25 µg/mL (≈ 0.427 µM) | MIC (E. faecalis H 6897): 1 µg/mL (≈ 1.71 µM) | MIC (E. faecalis H 7094): 0.5 µg/mL (≈ 0.854 µM) | MIC (E. faecalis H 7460): 1 µg/mL (≈ 1.71 µM) | MIC (E. faecium ATCC 19434): 0.25 µg/mL (≈ 0.427 µM) | MIC (E. faecium H 9070): 1 µg/mL (≈ 1.71 µM) | MIC (E. faecium H 7969): 1 µg/mL (≈ 1.71 µM) | MIC (E. faecium H 7966): 0.5 µg/mL (≈ 0.854 µM) | MIC (E. faecium H 7965): 0.5 µg/mL (≈ 0.854 µM) | MIC (E. faecium A 949): 1 µg/mL (≈ 1.71 µM) | MIC (E. faecium L1 (LZD-R)): 2 µg/mL (≈ 3.42 µM)
